Assay results published in patent US20240299380A1, “APPLICATION OF COMPOUND IN PREPARATION OF DRUG FOR TREATING MYELOFIBROSIS AND RELATED SYMPTOMS/SIGNS THEREOF, AND USE OF COMPOUND” (Betta Pharmaceuticals Co., Ltd, priority 2021, published 2024).

Key:
[1] = tested on: HEL cells with JAK2V617F activation mutation; test: CTG cell proliferation assay, HEL cells; assay type: cell-based, human
Description: (§1) The effects of compound 1 on proliferation of human myeloproliferative tumor cells HEL and SET-2 cells with JAK2V617F activation mutation were tested using CTG assay in this example to evaluate half inhibitory rate (IC50) of compound 1 on HEL and SET-2 cell proliferation.
(§2) • a) HEL cells were cultured in RPMI 1640 medium containing 1% PS and 10% FBS. […] The cells were incubated in a humidified incubator with 5% carbon dioxide (CO2) at 37° C.
(§3) • a) Cells were harvested upon reaching a certain density. • b) Cells were resuspended in corresponding medium with a certain density. • c) 30 μL of cell suspension was added into each well of a 384-well plate. For HEL, the density was 1800 cells/well, and for SET-2, 2000 cells/well. • d) Cells were incubated overnight in a humidified incubator with 5% CO2 at 37° C.
(§4) The compounds were diluted with DMSO 6.67 fold from 20 mM to 3 mM, then 3-fold serial dilutions were conducted to make 10 concentrations for each compound. […]
(§5) • a) 30 μL CTG reagent (CelltiterGlo kit) was added to each well, and the plate was subjected to orbital shaking for 2 minutes, then incubated at room temperature in the dark for 30 minutes. • b) Luminescence values were obtained using Envision.
(§6) IC50 (the half maximal inhibitory concentration) was calculated with GraphPad Prism 8 software and following nonlinear fitting formula: […]

[2] = tested on: SET-2 cells with JAK2V617F activation mutation; test: CTG cell proliferation assay, SET-2 cells; assay type: cell-based, human
Description: as §1, §2, §3, §4, §5, §6

[3] = tested on: IL-6 secretion in THP-1 cells; test: IL-6 ELISA in THP-1 cell supernatants following LPS stimulation; assay type: cell-based, Human
Description: The Human IL-6 Valukine ELISA kit (purchased from R&D) was used to measure the IL-6 content in the cell supernatants by ELISA method in this example. The experimental procedures shown below were conducted to determine the effect of compound 1 on IL-6 secretion in THP-1 cell supernatants following LPS stimulation.
THP-1 cells were cultured in RPMI 1640 medium containing 1% PS and 10% FBS and 2-Mercaptoethanol (IX). The cells were incubated in a humidified incubator with 5% carbon dioxide (CO2) at 37° C. […]
• a) 50 μL medium was added to each well. • b) 100 μL CTG reagent (CelltiterGlo kit) was added to each well, and the plate was placed on a orbital shaker for 2 minutes, then placed at room temperature in dark conditions for 30 minutes, and then transferred to CTG plate. • c) The luminescence values were recorded with Envision.
IC50 (The half maximal inhibitory concentration) was calculated using GraphPad Prism 8 software with the following nonlinear fitting formula: […]
[formula] • b) IL-6 detection: X: Log value of Compound concentration, Y: IL-6 concentration (pg/mL) • IL-6 concentration was calculated based on the linear equation of standard dilution concentration and wavelength detection. […]

[4] = tested on: NF-κB transcriptional activity; test: NF-κB reporter gene assay in HEK293 cells; assay type: cell-based
Description: In present example, reporter gene assay was used to determine the inhibitory effect of compound 1 on NF-κB transcriptional activity in HEK293 cells, to evaluate the effect of the compound on NF-κB transcriptional activity.
• a) All compounds were 3-fold serial diluted from 10 mM for 10 doses in DMSO. • b) The positive compound CDDO-Me was 3-fold serial diluted from 10 mM for 10 doses in DMSO. • c) 1000×positive control ([…]) and 1000×negative control (100% DMSO) were prepared. • d) Compounds plate was sealed and shaked for 5 minutes.
• a) All cells were cultured following ATCC recommendations. […] Digestion was terminated with complete culture medium, and the cells were collected and counted. • d) A total of 6*10^6 HEK293T cells were seeded into a 100 mm cell culture dish. • e) The cells were then incubated overnight in a 5% CO2 incubator. […]
• a) The Britelite plus reagent were allowed to reach room temperature. • b) The 384-well assay plates (prepared at Step 3) were allowed to reach room temperature. • c) 25 μL Britelite plus reagent was added to each well of 384-well assay plate. • d) Luminescence values were recorded with Envision.
[formula] • RLU: relative luminescence units • RLUPositive: The average luminescence value of the blank controls. • RLUvehicle: The average luminescence value of the negative controls. • 5.2 IC50 calculating and compound dose-response curves fitting: […]

[5] = Homo sapiens, 72 h, CTG, read-out: IC50 for cell proliferation inhibition

IC50 ([3]; Homo sapiens, THP-1 cells, LPS 4 μg/mL, read-out: IC50 for inhibition of IL-6 secretion in THP-1 cells): 22.4 nM
IC50 ([4]; Homo sapiens, HEK293 cells with NF-κB reporter gene, 8 ng/ml TNFα, 16-20 h, read-out: IC50 for the inhibition of NF-κB transcriptional activity): 148 nM
SMILES: Cc1nc2ncc(-c3cn(C)c(=O)c4[nH]ccc34)nc2n1Cc1ccc(C(F)(F)F)cc1 [Compound 1, 6-methyl-4-(2-methyl-1-(4-(trifluoromethyl)benzyl)-1H-imidazo[4,5-b]pyrazin-6-yl)-1H-py rrolo[2,3-c]pyridin-7(6H)-one]
inhibitory effect on proliferation of HEL cells (in words) [1]: good inhibitory effect
IC50 [1, 5]: 154 nM
inhibitory effect on proliferation of SET-2 cells (in words) [2]: good inhibitory effect
IC50 [2, 5]: 104 nM
inhibition of IL-6 secretion (in words) ([3]; THP1 monocytes, LPS): significantly inhibited
inhibition of the transcriptional activity of NF-κB (in words) ([4]; HEK293 cells stably transfected with the NF-κB reporter gene): significantly inhibited
